In article PMC6508677, “Identification of druggable small molecule antagonists of the Plasmodium falciparum hexose transporter PfHT and assessment of ligand access to the glucose permeation pathway via FLAG-mediated protein engineering” (PLoS ONE, 2019):
“And” between values parts separate entries of the source, which are not always exact repeats. Identical values can stand only once. Like-named read-outs stand apart in the source and are kept apart here.

Experiments:
P. falciparum strain 3D7 = assay: P. falciparum growth inhibition assay (Picogreen DNA content, 3 days); assay type: cell-based, Plasmodium falciparum; settings: for EC50: P. falciparum 3D7 intraerythrocytic forms, 3 days, mean, read-out: EC50 (IC50 in Fig 4A) for inhibition of parasite growth; for IC50: 3D7, 3D7, Expt 1-3, read-out: IC50 for inhibition of parasite growth, individual experiments
Experimental: P. falciparum strain 3D7 was obtained from the Malaria Research and Reference Reagent Resource Center (MR4, ATCC, Manassas, VA). Parasites were cultured in a 2% suspension of human erythrocytes and RPMI 1640 (Sigma) medium supplemented with 27 mM sodium bicarbonate, 11 mM glucose, 5 mM HEPES, 1 mM sodium pyruvate, 0.37 mM hypoxanthine, 0.01 mM thymidine, 10 μg/ml gentamicin, and 0.5% Albumax (Gibco) at 37°C, 5% O2/ 5% CO2 / 90% N2 atmosphere as previously described.
Asynchronous P. falciparum cultures were diluted to 1% parasitemia and were treated with compounds at concentrations ranging from 0.195 μM—100 μM. Growth inhibition assays were performed in 100 μl cultures in opaque 96-well plates. Parasite growth was quantified after 3 days by measuring DNA content using Picogreen (Life Technologies)[22]. Fluorescence was measured by a FLUOstar Omega microplate reader (BMG Labtech) at 485 nm excitation and 528 nm emission. IC50 values were calculated by least squares nonlinear regression analysis using GraphPad Prism 6.0 software.

PfHT = molecular target: T1, PfHT (Plasmodium falciparum, UniProt Q7KWJ5); assay: ATB-BMPA photolabel binding to PfHT liposomes; parameters: expressed in transfected cells
T1 sequence (Q7KWJ5 1-504): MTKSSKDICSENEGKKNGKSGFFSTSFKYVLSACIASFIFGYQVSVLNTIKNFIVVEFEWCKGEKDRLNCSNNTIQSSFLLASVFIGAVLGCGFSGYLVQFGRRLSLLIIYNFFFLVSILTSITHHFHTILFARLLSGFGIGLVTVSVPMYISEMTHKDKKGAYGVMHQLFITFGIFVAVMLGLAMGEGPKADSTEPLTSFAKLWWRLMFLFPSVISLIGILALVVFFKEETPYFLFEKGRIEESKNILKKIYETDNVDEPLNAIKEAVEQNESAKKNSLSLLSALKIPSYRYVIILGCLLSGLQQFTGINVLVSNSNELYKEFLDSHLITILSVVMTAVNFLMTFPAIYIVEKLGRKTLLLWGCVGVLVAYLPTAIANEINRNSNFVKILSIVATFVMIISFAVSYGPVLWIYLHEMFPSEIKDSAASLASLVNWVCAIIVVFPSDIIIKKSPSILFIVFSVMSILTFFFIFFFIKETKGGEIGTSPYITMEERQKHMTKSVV
Experimental: WU-1 inhibitor was added to PfHT liposomes for 10 min at room temperature. Samples (final volume, 110 μl) were then incubated for 10 min at room temperature with biotinylated ATB-BMPA (50 μM final concentration) and then placed on ice prior to UV irradiation. Reactions were transferred to a 24-well low protein retention culture dish (Costar, Corning, NY) and then irradiated at room temperature 5 cm from a Green Spot UV lamp for 1 min (30 sec of light followed by 30 sec of darkness followed by 30 sec of light). Unbound ATB-BMPA was removed using a 0.5 ml Zeba Spin Column (Thermo Scientific, Rockford, IL). Samples were analyzed by immunoblot analysis using a fluorescently labeled streptavidin (LI-COR Biosciences, Lincoln, NE). The amount of PfHT protein in each sample was quantified by SDS-PAGE stained with Blue BANDIT protein stain using a BSA standard curve. The streptavidin signal was then normalized to the amount of PfHT protein.

[1] = Plasmodium falciparum, 3D7, 72 h

Structure (SMILES)	EC50 (P. falciparum strain 3D7) [µM]	IC50 (P. falciparum strain 3D7; Plasmodium falciparum) [µM]	EC50 (P. falciparum strain 3D7; [1]) [µM]	Parasite kill curve raw reading (Picogreen fluorescence), duplicate wells of Expt 1-3 (P. falciparum strain 3D7; concentration 0.195312 (μM))	Parasite kill curve raw reading (Picogreen fluorescence), duplicate wells of Expt 1-3 (P. falciparum strain 3D7; concentration 0.390625 (μM))	Parasite kill curve raw reading (Picogreen fluorescence), duplicate wells of Expt 1-3 (P. falciparum strain 3D7; concentration 0.78125 (μM))	Parasite kill curve raw reading (Picogreen fluorescence), duplicate wells of Expt 1-3 (P. falciparum strain 3D7; concentration 1.5625 (μM))	Parasite kill curve raw reading (Picogreen fluorescence), duplicate wells of Expt 1-3 (P. falciparum strain 3D7; concentration 3.125 (μM))	Parasite kill curve raw reading (Picogreen fluorescence), duplicate wells of Expt 1-3 (P. falciparum strain 3D7; concentration 6.25 (μM))	Parasite kill curve raw reading (Picogreen fluorescence), duplicate wells of Expt 1-3 (P. falciparum strain 3D7; concentration 25 (μM))	Parasite kill curve raw reading (Picogreen fluorescence), duplicate wells of Expt 1-3 (P. falciparum strain 3D7; concentration 50 (μM))	decrease of biotinylated ATB-BMPA photolabel binding to PfHT (PfHT; 10 μM WU-1, PfHT liposomes)	ATB-BMPA labeling, Strep signal (PfHT; 10µM WU-1, individual samples)	ATB-BMPA labeling, Strep/Protein (PfHT; 10µM WU-1, individual samples)	ATB-BMPA labeling, Strep/Protein normalized to 100% Control (PfHT; 10µM WU-1, individual samples)	ATB-BMPA labeling, normalized Ave (PfHT; 10µM WU-1, mean of 3)	remaining activity at 10 µM (PfHT; read-out: ATB-BMPA labeling, Strep/Protein normalized to 100% Control, 10µM WU-1, individual samples) [%]	Parasite kill curve raw reading (Picogreen fluorescence), duplicate wells of Expt 1-3 (P. falciparum strain 3D7; concentration 12.5 (μM))
Cc1ccc(S(=O)(=O)CCNC(=O)c2c(-c3c(Cl)cccc3Cl)noc2C)cc1 [WU-1, 3-(2,6-dichlorophenyl)-5-methyl-N-[2-(4-methylbenzenesulfonyl)ethyl]-1,2-oxazole-4-carboxamide]	5.49	4.66	5.5 ± 0.6	31647.2 and 35553.2 and 49650 and 55614 and 44370 and 49901	38759.2 and 38857.2 and 52621 and 61368 and 45376 and 55663	33807.2 and 31780.2 and 49005 and 55418 and 44284 and 47486	30912.2 and 34557.2 and 48254 and 53201 and 42714 and 48519	26767.2 and 25415.2 and 46950 and 47685 and 35273 and 35563	20627.2 and 20040.2 and 32177 and 39080 and 23717 and 27707	7109.17 and 9009.17 and 13213 and 12190 and 10238 and 11917	6656.17 and 8203.17 and 11766 and 11899 and 11265 and 11133	~ 60%	15.08 and 15.68 and 15.48	1.91 and 1.96 and 1.99	40.83 and 41.46	40.69	39.8	
COc1c(Br)cc([N+](=O)[O-])c(OC)c1C(=O)NC(=O)Nc1c(C)cccc1Cl [WU-2, 3-(3-bromo-2,6-dimethoxy-5-nitrobenzoyl)-1-(2-chloro-6-methylphenyl)urea]		21.3	22.8 ± 0.8	56098 and 51137 and 60240 and 31267.2 and 43585.2 and 60791	62198 and 51117 and 53186 and 43543.2 and 40121.2 and 61300	60027 and 63524 and 61078 and 36660.2 and 37397.2 and 61445	62718 and 60757 and 53560 and 40753.2 and 35617.2 and 59505			31771 and 33221 and 31489 and 18075.2 and 22893.2 and 29768								44791 and 46211 and 39233 and 29745.2 and 34796.2 and 56088
